# Measured values from PMC6259277, “Synthesis, Gastroprotective Effect and Cytotoxicity of New Amino Acid Diterpene Monoamides and Diamides” (Molecules, 2010).
# Columns and labels:
# [1] = system: ethanol/HCl-induced gastric lesions; assay: Ethanol/HCl-induced gastric lesion (ulcer) model in mice; type: in vivo; settings: for inhibition in vivo at 25 mg/kg: Mus musculus, po, read-out: Gastroprotective effect: % Lesion reduction; for Gastroprotective effect: Lesion index: mean ± SD, sum of lesion lengths
# Experimental: The gastroprotective activity of the compounds was determined in the ethanol/HCl-induced lesion model in mice. The purity of the tested compounds was higher than 95% by NMR analysis. Male Swiss albino mice weighing 30 ± 3 g were used. Animals were fed on certified Champion diet with free access to water under standard conditions of 12 h dark-light period, 50% relative humidity and 22 °C room temperature. Mice were randomly distributed into groups of eight animals each and fasted for 24 h with free access to water previous to the experiment. Fasting prior to ulcerogenic assays was used because 0.2 mL of the reference antisecretory drug lansoprazole (2-[[[3-methyl-4-(2,2,2-trifluroethoxy)-2-pyridyl]methyl]sulfinyl]benzimidazole) and the amides were administered orally. To keep the animal number to a minimum, dose-response studies were performed with the leucine derivatives 13 and 18 to set the conditions for single-dose comparison of gastroprotective effect. For the selected parent compounds, three doses were used: 25, 50 and 100 mg/kg. Fifty min after oral administration of the compounds, lansoprazole (20 mg/kg) or the vehicle (12% Tween 80, 10 mL/kg), all groups were orally treated with 0.2 mL of a solution containing 60% ethanol/0.3 M HCl (ethanol/HCl) for gastric lesion induction. Animals were sacrificed by cervical dislocation 1 h after the administration of ethanol/HCl, and the stomachs excised and inflated by injection of 5% formalin (1 mL). The ulcerated stomachs were fixed in 5% formalin for 30 min and opened along the greater curvature. The length (mm) of each lesion was measured, and the lesion index expressed as the sum of the length of all lesions. For comparison purposes, the products 1-5, 7-12, 14-16, 19 and 20 were assessed at a single oral dose of 25 mg/kg. The protocols were approved by the Universidad de Talca Institutional Animal Care and Use Committee, which follows the recommendations of the Canadian Council on Animal Care. Tween 80 and lansoprazole (> 98% purity by HPLC) were purchased from Sigma Chemical Co.
# Results were expressed as the mean ± SD. In all experiments, statistical differences between several treatments and their respective control were determined by one-way analysis of variance (ANOVA) and when the F value was significant, post hoc differences were determined by the Dunnett's multiple comparison test. The level of significance was set at P < 0.05. All statistical analyses were performed using the software Statistica 5.1 (StatSoft, Inc.) and Statistical Package S-Plus 2000.
# [2] = Cytotoxicity, neutral red uptake assay, MRC-5; type: cell-based; settings: human, MRC-5 normal lung fibroblasts, confluent monolayers, confluent cultures, 0-1000 µM, mean ± SD
# Experimental: (§1) Human normal lung fibroblasts MRC-5 (ATCC CCL-171) and Hep G2 cells (ATCC HB-8065) were grown as monolayers in minimum essential Eagle´s medium (MEM), with Earle's salts, 2.0 mM L-glutamine (Sigma Chemical Co.) and 2.0 g/L sodium bicarbonate (Sigma Chemical Co.), supplemented with 10% heat-inactivated fetal bovine serum (FBS), 100 IU/mL penicillin and 100 µg/mL streptomycin in a humidified incubator with 5% CO2 in air at 37 °C. Cell passage was maintained between 10 and 16 for MRC-5 and between 79 and 82 for Hep G2 cells. The medium was changed every 2 days. Culture media, antibiotics and FBS were obtained from Invitrogen Corp.
# (§2) Confluent cultures of MRC-5, AGS and Hep G2 cells were treated with medium containing the compounds at concentrations ranging from 0 up to 1000 µM. The products were first dissolved in DMSO and then in the corresponding culture medium supplemented with 2% FBS. The final content of DMSO in the test medium and controls was 1%. Cells were exposed for 24 h to the assayed compounds. Untreated cells served as controls. Each concentration was tested in quadruplicate together with the control and repeated three times in separate experiments. At the end of the incubation, the neutral red uptake (NRU) assay was carried out to determine cell viability. To calculate the IC50 values (concentration that produces a 50% inhibitory effect on the evaluated parameter) the results were transformed to percentage of controls and the IC50 value was graphically obtained from the dose-response curves.
# [3] = Cytotoxicity, neutral red uptake assay, AGS; type: cell-based; settings: human, AGS gastric adenocarcinoma cells, confluent monolayers, confluent cultures, 0-1000 µM, mean ± SD
# Experimental: as §2, with “Human gastric adenocarcinoma cells AGS (ATCC CRL-1739) were grown as monolayers in Ham F-12 medium containing 1.0 mM L-glutamine and 1.5 g/L sodium bicarbonate, supplemented with 10% heat-inactivated FBS, 100 IU/mL penicillin and 100 µg/mL streptomycin in a humidified incubator with 5% CO2 in air at 37 °C. The cell passage was maintained between 42 and 48. The medium was changed every 2 days. Confluent” for “Confluent”
# [4] = Cytotoxicity, neutral red uptake assay, Hep G2; type: cell-based; settings: human, Hep G2 cells, confluent monolayers, confluent cultures, 0-1000 µM, mean ± SD
# Experimental: as §1, §2
# [5] = single oral dose 25 mg/kg, compared with untreated controls
Structure (SMILES),"inhibition in vivo at 25 mg/kg [1, 5]",Gastroprotective effect: Lesion index ([1]; single oral dose 25 mg/kg),IC50 at 24 h [2],IC50 at 24 h [3],IC50 at 24 h [4],"gastric lesion reduction at the higher doses ([1]; dose-response study, higher oral doses (50 and 100 mg/kg))","Gastroprotective effect: % Lesion reduction ([1]; single oral dose 25 mg/kg, compared with untreated controls, 25 mg/kg)","Gastroprotective effect: Lesion index ([1]; single oral dose 25 mg/kg, 25 mg/kg)"
"COC(=O)CNC(=O)C[C@H](C)CCC1=C(C)CCC2[C@@](C)(C(=O)O)CCC[C@]12C (some centres unmarked) [Compound 1, Labd-8(9)-en-15,19-dioic acid, 15-glycyl methyl ester amide]",73.3%,12.3 ± 7.6 mm,447 ± 26 µM,189 ± 9 µM,242 ± 13 µM,,,
"COC(=O)[C@@H](NC(=O)C[C@H](C)CCC1=C(C)CCC2[C@@](C)(C(=O)O)CCC[C@]12C)C(C)C (some centres unmarked) [Compound 2, Labd-8(9)-en-15,19-dioic acid, 15-valyl methyl ester amide]",58.5%,19.1 ± 8.3 mm,> 1000 µM,> 1000 µM,> 1000 µM,,,
"COC(=O)[C@H](CC(C)C)NC(=O)C[C@H](C)CCC1=C(C)CCC2[C@@](C)(C(=O)O)CCC[C@]12C (some centres unmarked) [Compound 3, Labd-8(9)-en-15,19-dioic acid, 15-leucyl methyl ester amide]",72.6%,12.6 ± 6.8 mm,> 1000 µM,445 ± 27 µM,806 ± 32 µM,,,
"COC(=O)[C@@H]1CCCN1C(=O)C[C@H](C)CCC1=C(C)CCC2[C@@](C)(C(=O)O)CCC[C@]12C (some centres unmarked) [Compound 4, Labd-8(9)-en-15,19-dioic acid, 15-prolyl methyl ester amide]",70.9%,13.4 ± 6.8 mm,288 ± 11 µM,167 ± 7 µM,321 ± 14 µM,,,
"COC(=O)[C@H](Cc1c[nH]c2ccccc12)NC(=O)C[C@H](C)CCC1=C(C)CCC2[C@@](C)(C(=O)O)CCC[C@]12C (some centres unmarked) [Compound 5, Labd-8(9)-en-15,19-dioic acid, 15-tryptophanyl methyl ester amide]",25.4%,34.3 ±12.0 mm,260 ± 15 µM,149 ± 7 µM,291 ± 11 µM,,,
"COC(=O)[C@@H]1CCCN1C(=O)[C@@]1(C)CCC[C@]2(C)C(CC[C@@H](C)CC(=O)O)=C(C)CCC12 (some centres unmarked) [Compound 7, Labd-8(9)-en-15,19-dioic acid, 19-prolyl methyl ester amide]",53.9%,21.2 ± 9.5 mm,459 ± 32 µM,266 ± 16 µM,364 ± 15 µM,,,
"COC(=O)CNC(=O)C[C@H](C)CCC1=C(C)CCC2[C@@](C)(C(=O)NCC(=O)OC)CCC[C@]12C (some centres unmarked) [Compound 8, Labd-8(9)-en-15,19-dioic acid, 15,19-diglycyl methyl ester amide]",62%,17.5 ± 9.9 mm,890 ± 45 µM,592 ± 30 µM,841 ± 42 µM,,,
"COC(=O)[C@@H]1CCCN1C(=O)C[C@H](C)CCC1=C(C)CCC2[C@@](C)(C(=O)N3CCC[C@H]3C(=O)OC)CCC[C@]12C (some centres unmarked) [Compound 9, Labd-8(9)-en-15,19-dioic acid, 15,19-diprolyl methyl ester amide]",60%,18.4 ± 11.3 mm,119 ± 7 µM,82 ± 4 µM,67 ± 3 µM,,,
"COC(=O)[C@H](Cc1c[nH]c2ccccc12)NC(=O)C[C@H](C)CCC1=C(C)CCC2[C@@](C)(C(=O)N[C@@H](Cc3c[nH]c4ccccc34)C(=O)OC)CCC[C@]12C (some centres unmarked) [Compound 10, Labd-8(9)-en-15,19-dioic acid, 15,19-ditryptophanyl methyl ester amide]",61.7%,17.6 ± 7.8 mm,> 1000 µM,> 1000 µM,> 1000 µM,,,
"C=C1CCC2[C@](C)(CCC[C@]2(C)C(=O)O)[C@H]1CC[C@@H](C)CC(=O)NCC(=O)OC (some centres unmarked) [Compound 11, Labd-8(17)-en-15,19-dioic acid, 15-glycyl methyl ester amide]",71.9%,12.9 ± 8.1 mm,> 1000 µM,361 ± 18 µM,541 ± 22 µM,,,
"C=C1CCC2[C@](C)(CCC[C@]2(C)C(=O)O)[C@H]1CC[C@@H](C)CC(=O)N[C@H](C(=O)OC)C(C)C (some centres unmarked) [Compound 12, Labd-8(17)-en-15,19-dioic acid, 15-valyl methyl ester amide]",66.5%,15.4 ± 8.8 mm,380 ± 19 µM,309 ± 18 µM,673 ± 34 µM,,,
"C=C1CCC2[C@](C)(CCC[C@]2(C)C(=O)O)[C@H]1CC[C@@H](C)CC(=O)N[C@@H](CC(C)C)C(=O)OC (some centres unmarked) [Compound 13, Labd-8(17)-en-15,19-dioic acid, 15-leucyl methyl ester amide]",~65.6%,,449 ± 29 µM,308 ± 17 µM,808 ± 48 µM,79-89%,65.6%,15.8 ± 6.2 mm
"C=C1CCC2[C@](C)(CCC[C@]2(C)C(=O)O)[C@H]1CC[C@@H](C)CC(=O)N1CCC[C@H]1C(=O)OC (some centres unmarked) [Compound 14, Labd-8(17)-en-15,19-dioic acid, 15-prolyl methyl ester amide]",59.8%,18.5 ± 11.8 mm,> 1000 µM,297 ± 14 µM,894 ± 56 µM,,,
"C=C1CCC2[C@](C)(CCC[C@]2(C)C(=O)O)[C@H]1CC[C@@H](C)CC(=O)N[C@@H](Cc1c[nH]c2ccccc12)C(=O)OC (some centres unmarked) [Compound 15, Labd-8(17)-en-15,19-dioic acid, 15-tryptophanyl methyl ester amide]",73.7%,12.1 ± 4.7 mm,> 1000 µM,> 1000 µM,> 1000 µM,,,
"C=C1CCC2[C@](C)(CCC[C@]2(C)C(=O)NCC(=O)OC)[C@H]1CC[C@@H](C)CC(=O)NCC(=O)OC (some centres unmarked) [Compound 16, Labd-8(17)-en-15,19-dioic acid, 15,19-diglycyl methyl ester amide]",73.5%,12.2 ± 6.9 mm,> 1000 µM,483 ± 29 µM,529 ± 36 µM,,,
